# What was measured:
# matriptase activation [1] = target: T1, matriptase activation (Homo sapiens, UniProt Q9Y5Y6); test: Acid-induced matriptase activation in HaCaT keratinocytes, immunoblot; type: cell-based; conditions: HaCaT cells, pH 6.0, dose-dependent
# T1 sequence (Q9Y5Y6 1-855): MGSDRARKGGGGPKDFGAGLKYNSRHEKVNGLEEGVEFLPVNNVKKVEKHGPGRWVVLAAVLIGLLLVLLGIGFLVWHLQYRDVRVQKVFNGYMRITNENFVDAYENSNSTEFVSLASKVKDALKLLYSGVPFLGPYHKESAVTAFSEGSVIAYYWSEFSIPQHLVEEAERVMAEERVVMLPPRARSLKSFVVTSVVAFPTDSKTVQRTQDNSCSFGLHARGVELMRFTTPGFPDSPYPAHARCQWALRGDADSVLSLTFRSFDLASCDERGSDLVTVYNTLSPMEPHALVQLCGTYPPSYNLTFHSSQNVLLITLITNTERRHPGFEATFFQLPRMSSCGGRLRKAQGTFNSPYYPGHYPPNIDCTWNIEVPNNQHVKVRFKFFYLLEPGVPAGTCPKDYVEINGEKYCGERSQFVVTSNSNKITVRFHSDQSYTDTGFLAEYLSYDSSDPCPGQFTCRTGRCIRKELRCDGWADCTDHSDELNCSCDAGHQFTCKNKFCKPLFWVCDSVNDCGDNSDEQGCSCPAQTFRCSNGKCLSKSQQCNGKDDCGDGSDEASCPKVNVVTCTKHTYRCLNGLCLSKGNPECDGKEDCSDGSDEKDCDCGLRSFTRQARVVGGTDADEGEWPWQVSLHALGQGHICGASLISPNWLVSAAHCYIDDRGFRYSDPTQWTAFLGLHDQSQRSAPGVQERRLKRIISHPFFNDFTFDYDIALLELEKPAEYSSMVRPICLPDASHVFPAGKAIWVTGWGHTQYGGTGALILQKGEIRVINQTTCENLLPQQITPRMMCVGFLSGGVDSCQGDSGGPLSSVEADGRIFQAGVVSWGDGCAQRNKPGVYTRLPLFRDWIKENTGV
# prostasin activation = test: Acid-induced prostasin activation in HaCaT keratinocytes, immunoblot; type: cell-based, human; conditions: HaCaT cells, pH 6.0, dose-dependent
# matriptase activation [2] = target: T1, matriptase activation; test: Cell-free in vitro matriptase activation assay; type: biochemical; conditions: insoluble fractions of 184 A1N4 cell homogenates, pH 6.0
# matriptase activation [3] = target: T1, matriptase activation; type: cell-based; conditions: 184 A1N4 intact cells; for Inhibition of matriptase activation by immunoblot, increasing concentrations: pH 6.0, mAb M24 and M69
# [4] = target: T2, matriptase zymogen activation (Homo sapiens, UniProt Q9Y5Y6); test: Cell-based, ELISA-like matriptase activation assay; conditions: 184 A1N4 cells, pH 6.0 buffer, 20 min, ELISA-like assay and immunoblot
# T2 sequence (Q9Y5Y6 1-855): T1 sequence (Q9Y5Y6 1-855)
Compound,Inhibition of acid-induced activation of matriptase (matriptase activation [1]),"Inhibition of matriptase activation by immunoblot, increasing concentrations (matriptase activation [3])","120-kDa matriptase-HAI-1 complex (matriptase activation) by immunoblot (matriptase activation [3]; 5 μM compound, pH 6.0)",Inhibition of acid-induced activation of prostasin (prostasin activation),Inhibition of matriptase activation in the cell-free system (matriptase activation [2]),NaCl-mediated inhibition of acid-induced matriptase activation [4]
"Cc1nc(N2C(=O)C(O)=C(C(=O)c3cccs3)C2c2ccccc2)sc1C (centres unmarked) [compound 3, 1-(4,5-dimethylthiazol-2-yl)-3-hydroxy-5-phenyl-4-(thiophene-2-carbonyl)-1H-pyrrol-2(5H)-one]",same pattern of inhibition,same pattern of inhibition,,same pattern of inhibition,suppress matriptase activation in a dose-dependent manner,
"Cc1nc(N2C(=O)C(O)=C(C(=O)c3ccccc3)C2c2cccs2)sc1C (centres unmarked) [compound 4, 4-benzoyl-1-(4,5-dimethylthiazol-2-yl)-3-hydroxy-5-(thiophen-2-yl)-1H-pyrrol-2(5H)-one]",same pattern of inhibition,same pattern of inhibition,,same pattern of inhibition,suppress matriptase activation in a dose-dependent manner,
Sodium chloride [NaCl],,,,,,dose-dependent manner

# Continued, in another order:
Inhibition of acid-induced activation of matriptase (matriptase activation [1]),"Inhibition of matriptase activation by immunoblot, increasing concentrations (matriptase activation [3])","120-kDa matriptase-HAI-1 complex (matriptase activation) by immunoblot (matriptase activation [3]; 5 μM compound, pH 6.0)",Compound,Inhibition of acid-induced activation of prostasin (prostasin activation),Inhibition of matriptase activation in the cell-free system (matriptase activation [2]),NaCl-mediated inhibition of acid-induced matriptase activation [4]
same pattern of inhibition,same pattern of inhibition,,"O=C(C1=C(O)C(=O)N(c2nccs2)C1c1cccs1)c1cccs1 (centres unmarked) [compound 1, 3-hydroxy-1-(thiazol-2-yl)-5-(thiophen-2-yl)-4-(thiophene-2-carbonyl)-1H-pyrrol-2(5H)-one]",same pattern of inhibition,suppress matriptase activation in a dose-dependent manner,
clearly inhibited,,no detectable 120-kDa complex,"Cc1nc(N2C(=O)C(O)=C(C(=O)c3cccs3)C2c2cccs2)sc1C (centres unmarked) [compound 2, 1-(4,5-dimethylthiazol-2-yl)-3-hydroxy-5-(thiophen-2-yl)-4-(thiophene-2-carbonyl)-1H-pyrrol-2(5H)-one]",clearly inhibited,suppress matriptase activation in a dose-dependent manner,
